For data set [1], the system named is Glomerella lagenarium (Colletotrichum lagenarium). Description: Fungicidal activity against Glomerella lagenarium (Colletotrichum lagenarium) liquid culture / cucumber / preventative (anthracnose). The following applies: Colletotrichum orbiculare; 20 ppm in the applied formulation; liquid culture in PDB, 24° C.; 3 to 4 days after application; read-out: disease control compared to untreated control (inhibition of growth measured photometrically). It is filed as cell-based. How it is done:
Mycelia fragments or conidia suspensions of a fungus prepared either freshly from liquid cultures of the fungus or from cryogenic storage, are directly mixed into nutrient broth. DMSO solutions of the test compound (max. 10 mg/ml) are diluted with 0.025% Tween20 by a factor of 50 and 10 μl of this solution is pipetted into a microtiter plate (96-well format). The nutrient broth containing the fungal spores/mycelia fragments is then added to give an end concentration of the tested compound. The test plates are incubated in the dark at 24° C. and 96% relative humidity. The inhibition of fungal growth is determined photometrically after 2 to 7 days, depending on the pathosystem, and percent antifungal activity relative to the untreated check is calculated.
Conidia of the fungus from cryogenic storage are directly mixed into nutrient broth (PDB—potato dextrose broth). After placing a (DMSO) solution of test compound into a microtiter plate (96-well format), the nutrient broth containing the fungal spores is added. The test plates are incubated at 24° C. and the inhibition of growth is measured photometrically 3 to 4 days after application.
The following compounds at 20 ppm in the applied formulation give at least 80% disease control in this test when compared to untreated control under the same conditions, which show extensive disease development.

Data set [2] relates to Puccinia recondite f. Sp. Tritici. Description: Fungicidal activity against Puccinia recondite f. sp. tritici / wheat / leaf disc curative (brown rust). Type of data set: in vivo. The following applies: foliar, 200 ppm in the applied formulation, wheat leaf segments cv. Kanzler, applied 1 day after inoculation, assessed 6 to 8 days after application, read-out: disease control compared to untreated control leaf disks. How it is done:
(§1) Leaf disks or leaf segments of various plant species are cut from plants grown in a greenhouse. The cut leaf disks or segments are placed in multiwell plates (24-well format) onto water agar. The leaf disks are sprayed with a test solution before (preventative) or after (curative) inoculation. Compounds to be tested are prepared as DMSO solutions (max. 10 mg/ml) which are diluted to the appropriate concentration with 0.025% Tween20 just before spraying. The inoculated leaf disks or segments are incubated under defined conditions (temperature, relative humidity, light, etc.) according to the respective test system. A single evaluation of disease level is carried out 3 to 14 days after inoculation, depending on the pathosystem. Percent disease control relative to the untreated check leaf disks or segments is then calculated.
Wheat leaf segments cv. Kanzler are placed on agar in multiwell plates (24-well format). The leaf segments are then inoculated with a spore suspension of the fungus. Plates were stored in darkness at 19° C. and 75% relative humidity. The formulated test compound diluted in water was applied 1 day after inoculation. The leaf segments were incubated at 19° C. and 75% relative humidity under a light regime of 12 hours light/12 hours darkness in a climate cabinet and the activity of a compound was assessed as percent disease control compared to untreated when an appropriate level of disease damage appears in untreated check leaf segments (6 to 8 days after application).
The following compounds at 200 ppm in the applied formulation give at least 80% disease control in this test when compared to untreated control leaf disks under the same conditions, which show extensive disease development.

Data set [3] deals with Puccinia recondita f. Sp. Tritici. Description: Fungicidal activity against Puccinia recondita f. sp. tritici / wheat / leaf disc preventative (brown rust). Type of data set: in vivo. The following applies: foliar, 200 ppm in the applied formulation, wheat leaf segments cv. Kanzler, inoculated 1 day after application, assessed 7 to 9 days after application, read-out: disease control compared to untreated control leaf disks. On the procedure:
as §1, with “calculated. Wheat leaf segments cv. Kanzler were placed on agar in multiwell plates (24-well format) and sprayed with the formulated test compound diluted in water. The leaf disks were inoculated with a spore suspension of the fungus 1 day after application. The inoculated leaf segments were incubated at 19° C. and 75% relative humidity (rh) under a light regime of 12 hours light/12 hours darkness in a climate cabinet and the activity of a compound was assessed as percent disease control compared to untreated when an appropriate level of disease damage appears in untreated check leaf segments (7 to 9 days after application). The following compounds at 200 ppm in the applied formulation give at least 80% disease control in this test when compared to untreated control leaf disks under the same conditions, which show extensive disease development.” for “calculated.”

The term inhibition denotes the drop in the measured response relative to a control, in per cent. The melting point is the temperature of the solid-liquid transition.

Structures are written as SMILES.

With `Cl.NCCNC(=O)C(=O)c1ccc(-c2noc(C(F)(F)F)n2)cc1` [Compound 1.9, 2-[[2-oxo-2-[4-[5-(trifluoromethyl)-1,2,4-oxadiazol-3-yl]phenyl]acet-yl]amino]ethyl-ammonium; chloride], the melting point was 213 to 214 °C. The inhibition at 20 ppm in data set [1] was at least 80%. In addition, in data set [2], the pest or weed control at 200 ppm is at least 80%. In addition, the pest or weed control at 200 ppm in data set [3] was at least 80%.

`CCCCNC(=O)C(=O)c1ccc(-c2noc(C(F)(F)F)n2)cc1` [Compound 1.12, N-butyl-2-oxo-2-[4-[5-(trifluoromethyl)-1,2,4-oxadiazol-3-yl]phenyl]acetamide] showed a melting point of 65.1 to 68.2 °C. Moreover, in data set [1], the inhibition at 20 ppm is at least 80%. Also, the pest or weed control at 200 ppm in data set [2] was at least 80%. The pest or weed control at 200 ppm in data set [3] was at least 80%.

Take `CC(C)NC(=O)C(=O)c1ccc(-c2noc(C(F)(F)F)n2)cc1` [Compound 1.13, N-isopropyl-2-oxo-2-[4-[5-(trifluoromethyl)-1,2,4-oxadiazol-3-yl]phenyl]acetamide]: the melting point lay within 96 to 97.7 °C. The inhibition at 20 ppm in data set [1] was at least 80%. In addition, in data set [2], the pest or weed control at 200 ppm was at least 80%. For the same compound, in data set [3], the pest or weed control at 200 ppm was at least 80%.

Regarding `N#CCNC(=O)C(=O)c1ccc(-c2noc(C(F)(F)F)n2)cc1` [Compound 1.14, N-(cyanomethyl)-2-oxo-2-[4-[5-(trifluoromethyl)-1,2,4-oxadiazol-3-yl]phenyl]acetamide], the melting point lay within 143.6 to 147.6 °C. In data set [1], the inhibition at 20 ppm was at least 80%. Besides, the pest or weed control at 200 ppm in data set [2] is at least 80%. Also, the pest or weed control at 200 ppm in data set [3] is at least 80%.

Turning to `CC(C)CNC(=O)C(=O)c1ccc(-c2noc(C(F)(F)F)n2)cc1` [Compound 1.15, N-isobutyl-2-oxo-2-[4-[5-(trifluoromethyl)-1,2,4-oxadiazol-3-yl]phenyl]acetamide], the melting point fell in the range of 83 to 85.3 °C. In addition, in data set [1], the inhibition at 20 ppm is at least 80%. For the same compound, the pest or weed control at 200 ppm in data set [2] was at least 80%. Further, in data set [3], the pest or weed control at 200 ppm was at least 80%.

The compound `O=C(NC1CC1)C(=O)c1ccc(-c2noc(C(F)(F)F)n2)cc1` [Compound 1.16, N-cyclopropyl-2-oxo-2-[4-[5-(trifluoromethyl)-1,2,4-oxadiazol-3-yl]phenyl]acetamide] displayed a melting point of 113.1 to 116 °C. Besides, the inhibition at 20 ppm in data set [1] is at least 80%. For the same compound, in data set [2], the pest or weed control at 200 ppm is at least 80%. Further, the pest or weed control at 200 ppm in data set [3] is at least 80%.

In turn, `CNC(=O)C(=O)c1ccc(-c2noc(C(F)(F)F)n2)cc1` [Compound 1.17, N-methyl-2-oxo-2-[4-[5-(trifluoromethyl)-1,2,4-oxadiazol-3-yl]phenyl]acetamide] gave a melting point of 128.1 to 130.8 °C. For the same compound, the inhibition at 20 ppm in data set [1] is at least 80%. Further, the pest or weed control at 200 ppm in data set [2] is at least 80%. The pest or weed control at 200 ppm in data set [3] was at least 80%.

Compound `NC(=O)C(=O)c1ccc(-c2noc(C(F)(F)F)n2)cc1` [Compound 1.18, 2-oxo-2-[4-[5-(trifluoromethyl)-1,2,4-oxadiazol-3-yl]phenyl]acetamide] had a melting point of 146.7 to 149.7 °C. Besides, the inhibition at 20 ppm in data set [1] was at least 80%. Besides, the pest or weed control at 200 ppm in data set [2] is at least 80%. Also, in data set [3], the pest or weed control at 200 ppm was at least 80%.

`CN(C)NC(=O)C(=O)c1ccc(-c2noc(C(F)(F)F)n2)cc1` [Compound 1.19, N′,N′-dimethyl-2-oxo-2-[4-[5-(trifluoromethyl)-1,2,4-oxadiazol-3-yl]phenyl]aceto-hydrazide] came in with a melting point of 134 to 138 °C. For the same compound, in data set [1], the inhibition at 20 ppm was at least 80%. Also, in data set [2], the pest or weed control at 200 ppm is at least 80%. In data set [3], the pest or weed control at 200 ppm was at least 80%.

(Values after US10653146B2, “Microbiocidal oxadiazole derivatives” (SYNGENTA PARTICIPATIONS AG, priority 2016, dated 2020).)
